± gives the expanded uncertainty stated by the source.
Conditions: Liquid; for electrical conductivity: Alternating current cell with electrodes; for viscosity: Capillary tube (Ostwald / Ubbelohde) method; for mass density: Vibrating tube method

For CCCC[N+]1(C)CCCC1.N#CN=C=[N-] [1-butyl-1-methylpyrrolidinium dicyanamide], the electrical conductivity (298.15 K, 100 kPa, Frequency=0.00652174 MHz) was 1.317 ± 0.013 S/m, the electrical conductivity (298.15 K, 100 kPa, Frequency=0.00694444 MHz) was 1.317 ± 0.013 S/m and the electrical conductivity (298.15 K, 100 kPa, Frequency=0.0075 MHz) was 1.318 ± 0.013 S/m. For the same molecule, the electrical conductivity (298.15 K, 100 kPa, Frequency=0.008 MHz) was 1.318 ± 0.013 S/m, the electrical conductivity (298.15 K, 100 kPa, Frequency=0.00857143 MHz) was 1.318 ± 0.013 S/m and the electrical conductivity (298.15 K, 100 kPa, Frequency=0.00892857 MHz) was 1.318 ± 0.013 S/m. For the same molecule, the electrical conductivity (298.15 K, 100 kPa, Frequency=0.00961538 MHz) was 1.318 ± 0.013 S/m, the electrical conductivity (298.15 K, 100 kPa, Frequency=0.01 MHz) was 1.318 ± 0.013 S/m and the electrical conductivity (298.15 K, 101.33 kPa) was 1.317 ± 0.013 S/m. The viscosity (298.15 K, 101.33 kPa) was 33.71 ± 0.77 mPa·s, the mass density (298.15 K, 101.33 kPa) was 1013.45 ± 8.1 kg/m3 and the electrical conductivity (303.15 K, 100 kPa, Frequency=0.0005 MHz) was 1.525 ± 0.015 S/m. For the same molecule, the electrical conductivity (303.15 K, 100 kPa, Frequency=0.001 MHz) was 1.526 ± 0.015 S/m, the electrical conductivity (303.15 K, 100 kPa, Frequency=0.0015 MHz) was 1.526 ± 0.015 S/m and the electrical conductivity (303.15 K, 100 kPa, Frequency=0.002 MHz) was 1.527 ± 0.015 S/m. For the same molecule, the electrical conductivity (303.15 K, 100 kPa, Frequency=0.0025 MHz) was 1.527 ± 0.015 S/m, the electrical conductivity (303.15 K, 100 kPa, Frequency=0.003 MHz) was 1.527 ± 0.015 S/m and the electrical conductivity (303.15 K, 100 kPa, Frequency=0.00347222 MHz) was 1.527 ± 0.015 S/m. For the same molecule, the electrical conductivity (303.15 K, 100 kPa, Frequency=0.004 MHz) was 1.527 ± 0.015 S/m, the electrical conductivity (303.15 K, 100 kPa, Frequency=0.00446429 MHz) was 1.527 ± 0.015 S/m and the electrical conductivity (303.15 K, 100 kPa, Frequency=0.005 MHz) was 1.527 ± 0.015 S/m. For the same molecule, the electrical conductivity (303.15 K, 100 kPa, Frequency=0.005454 MHz) was 1.527 ± 0.015 S/m, the electrical conductivity (303.15 K, 100 kPa, Frequency=0.006 MHz) was 1.527 ± 0.015 S/m and the electrical conductivity (303.15 K, 100 kPa, Frequency=0.00652174 MHz) was 1.527 ± 0.015 S/m. The electrical conductivity (303.15 K, 100 kPa, Frequency=0.00694444 MHz) was 1.527 ± 0.015 S/m, the electrical conductivity (303.15 K, 100 kPa, Frequency=0.0075 MHz) was 1.527 ± 0.015 S/m and the electrical conductivity (303.15 K, 100 kPa, Frequency=0.008 MHz) was 1.527 ± 0.015 S/m. For the same molecule, the electrical conductivity (303.15 K, 100 kPa, Frequency=0.00857143 MHz) was 1.527 ± 0.015 S/m, the electrical conductivity (303.15 K, 100 kPa, Frequency=0.00892857 MHz) was 1.527 ± 0.015 S/m and the electrical conductivity (303.15 K, 100 kPa, Frequency=0.00961538 MHz) was 1.527 ± 0.015 S/m. The electrical conductivity (303.15 K, 100 kPa, Frequency=0.01 MHz) was 1.527 ± 0.015 S/m, the electrical conductivity (303.15 K, 101.33 kPa) was 1.527 ± 0.015 S/m and the viscosity (303.15 K, 101.33 kPa) was 28.53 ± 0.65 mPa·s. The mass density (303.15 K, 101.33 kPa) was 1010.64 ± 8.1 kg/m3, the electrical conductivity (308.15 K, 101.33 kPa) was 1.75 ± 0.018 S/m and the viscosity (308.15 K, 101.33 kPa) was 24.53 ± 0.56 mPa·s. It also gave a mass density (308.15 K, 101.33 kPa) of 1007.84 ± 8.1 kg/m3, an electrical conductivity (313.15 K, 100 kPa, Frequency=0.0005 MHz) of 1.99 ± 0.02 S/m and an electrical conductivity (313.15 K, 100 kPa, Frequency=0.001 MHz) of 2 ± 0.02 S/m. It also gave an electrical conductivity (313.15 K, 100 kPa, Frequency=0.0015 MHz) of 2 ± 0.02 S/m, an electrical conductivity (313.15 K, 100 kPa, Frequency=0.002 MHz) of 2 ± 0.02 S/m and an electrical conductivity (313.15 K, 100 kPa, Frequency=0.0025 MHz) of 2 ± 0.02 S/m. It also gave an electrical conductivity (313.15 K, 100 kPa, Frequency=0.003 MHz) of 2 ± 0.02 S/m, an electrical conductivity (313.15 K, 100 kPa, Frequency=0.00347222 MHz) of 2 ± 0.02 S/m and an electrical conductivity (313.15 K, 100 kPa, Frequency=0.004 MHz) of 2 ± 0.02 S/m. For the same molecule, the electrical conductivity (313.15 K, 100 kPa, Frequency=0.00446429 MHz) was 2 ± 0.02 S/m, the electrical conductivity (313.15 K, 100 kPa, Frequency=0.005 MHz) was 2 ± 0.02 S/m and the electrical conductivity (313.15 K, 100 kPa, Frequency=0.005454 MHz) was 2 ± 0.02 S/m. For the same molecule, the electrical conductivity (313.15 K, 100 kPa, Frequency=0.006 MHz) was 2 ± 0.02 S/m, the electrical conductivity (313.15 K, 100 kPa, Frequency=0.00652174 MHz) was 2 ± 0.02 S/m and the electrical conductivity (313.15 K, 100 kPa, Frequency=0.00694444 MHz) was 2 ± 0.02 S/m. For the same molecule, the electrical conductivity (313.15 K, 100 kPa, Frequency=0.0075 MHz) was 2 ± 0.02 S/m, the electrical conductivity (313.15 K, 100 kPa, Frequency=0.008 MHz) was 2 ± 0.02 S/m and the electrical conductivity (313.15 K, 100 kPa, Frequency=0.00857143 MHz) was 2 ± 0.02 S/m. For the same molecule, the electrical conductivity (313.15 K, 100 kPa, Frequency=0.00892857 MHz) was 2 ± 0.02 S/m, the electrical conductivity (313.15 K, 100 kPa, Frequency=0.00961538 MHz) was 2 ± 0.02 S/m and the electrical conductivity (313.15 K, 100 kPa, Frequency=0.01 MHz) was 2 ± 0.02 S/m. For the same molecule, the electrical conductivity (313.15 K, 101.33 kPa) was 2 ± 0.02 S/m, the viscosity (313.15 K, 101.33 kPa) was 21.07 ± 0.48 mPa·s and the mass density (313.15 K, 101.33 kPa) was 1005.06 ± 8.1 kg/m3. For the same molecule, the electrical conductivity (318.15 K, 101.33 kPa) was 2.25 ± 0.023 S/m, the viscosity (318.15 K, 101.33 kPa) was 18.37 ± 0.42 mPa·s and the mass density (318.15 K, 101.33 kPa) was 1002.28 ± 8.1 kg/m3. For the same molecule, the electrical conductivity (323.15 K, 100 kPa, Frequency=0.0005 MHz) was 2.525 ± 0.025 S/m, the electrical conductivity (323.15 K, 100 kPa, Frequency=0.001 MHz) was 2.526 ± 0.025 S/m and the electrical conductivity (323.15 K, 100 kPa, Frequency=0.0015 MHz) was 2.527 ± 0.025 S/m. It also gave an electrical conductivity (323.15 K, 100 kPa, Frequency=0.002 MHz) of 2.528 ± 0.025 S/m, an electrical conductivity (323.15 K, 100 kPa, Frequency=0.0025 MHz) of 2.528 ± 0.025 S/m and an electrical conductivity (323.15 K, 100 kPa, Frequency=0.003 MHz) of 2.528 ± 0.025 S/m. It also gave an electrical conductivity (323.15 K, 100 kPa, Frequency=0.00347222 MHz) of 2.528 ± 0.025 S/m, an electrical conductivity (323.15 K, 100 kPa, Frequency=0.004 MHz) of 2.529 ± 0.025 S/m and an electrical conductivity (323.15 K, 100 kPa, Frequency=0.00446429 MHz) of 2.529 ± 0.025 S/m. The electrical conductivity (323.15 K, 100 kPa, Frequency=0.005 MHz) was 2.529 ± 0.025 S/m, the electrical conductivity (323.15 K, 100 kPa, Frequency=0.005454 MHz) was 2.529 ± 0.025 S/m and the electrical conductivity (323.15 K, 100 kPa, Frequency=0.006 MHz) was 2.529 ± 0.025 S/m. It also gave an electrical conductivity (323.15 K, 100 kPa, Frequency=0.00652174 MHz) of 2.529 ± 0.025 S/m, an electrical conductivity (323.15 K, 100 kPa, Frequency=0.00694444 MHz) of 2.529 ± 0.025 S/m and an electrical conductivity (323.15 K, 100 kPa, Frequency=0.0075 MHz) of 2.529 ± 0.025 S/m. It also gave an electrical conductivity (323.15 K, 100 kPa, Frequency=0.008 MHz) of 2.529 ± 0.025 S/m, an electrical conductivity (323.15 K, 100 kPa, Frequency=0.00857143 MHz) of 2.529 ± 0.025 S/m and an electrical conductivity (323.15 K, 100 kPa, Frequency=0.00892857 MHz) of 2.529 ± 0.025 S/m. It also gave an electrical conductivity (323.15 K, 100 kPa, Frequency=0.00961538 MHz) of 2.529 ± 0.025 S/m, an electrical conductivity (323.15 K, 100 kPa, Frequency=0.01 MHz) of 2.529 ± 0.025 S/m and an electrical conductivity (323.15 K, 101.33 kPa) of 2.529 ± 0.025 S/m. The viscosity (323.15 K, 101.33 kPa) was 16.15 ± 0.37 mPa·s, the mass density (323.15 K, 101.33 kPa) was 999.525 ± 8 kg/m3 and the mass density (328.15 K, 101.33 kPa) was 996.781 ± 8 kg/m3. It also gave a mass density (333.15 K, 101.33 kPa) of 994.049 ± 8 kg/m3.
